Assay results published in the supplement of paper PMC3937590.
Values belong to the compound of their own block, whether it stands above or below them.

Columns and labels:
Test in all cases: -log10 GI50 (growth inhibition 50%) (-log10(M)); higher = more potent growth inhibition
HCC1395 = system: HCC1395
How it was run: (§1)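 A value carrying a < qualifier equals the top dose tested. Each compound was tested in triplicate on breast cancer cell lines for 72 hours at nine doses in 1:5 serial dilution, using a luminescence read-out against a time-zero plate. Nonlinear least squares fitting of a Gompertz curve gave GI50, the molar concentration causing the set level of growth inhibition, which is reported as its negative logarithm. The logarithm is base 10.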

HCC1428 = system: HCC1428
How it was run: as §1

600MPE = system: 600MPE
How it was run: as §1

UACC812 = system: UACC812
How it was run: as §1

HCC1806 = system: HCC1806
How it was run: as §1

184A1 = system: 184A1
How it was run: as §1

SUM1315MO2 = system: SUM1315MO2
How it was run: as §1

SUM185PE = system: SUM185PE
How it was run: as §1

ZR751 = system: ZR751
How it was run: as §1

SUM52PE = system: SUM52PE
How it was run: as §1

SUM225CWN = system: SUM225CWN
How it was run: as §1

HCC1187 = system: HCC1187
How it was run: as §1

MDAMB175VII = system: MDAMB175VII
How it was run: as §1

T47D_KBluc = system: T47D_KBluc
How it was run: as §1

HCC1419 = system: HCC1419
How it was run: as §1

BT483 = system: BT483
How it was run: as §1

MDAMB134VI = system: MDAMB134VI
How it was run: as §1

HCC2185 = system: HCC2185
How it was run: as §1

MCF12A = system: MCF12A
How it was run: as §1

HCC3153 = system: HCC3153
How it was run: as §1

184B5 = system: 184B5
How it was run: as §1

MDAMB157 = system: MDAMB157
How it was run: as §1

MDAMB415 = system: MDAMB415
How it was run: as §1

AU565 = system: AU565
How it was run: as §1

HCC38 = system: HCC38
How it was run: as §1

MCF7 = system: MCF7
How it was run: as §1

HCC1143 = system: HCC1143
How it was run: as §1

BT549 = system: BT549
How it was run: as §1

LY2 = system: LY2
How it was run: as §1

SKBR3 = system: SKBR3
How it was run: as §1

MCF10F = system: MCF10F
How it was run: as §1

BT474 = system: BT474
How it was run: as §1

T47D = system: T47D
How it was run: as §1

HS578T = system: HS578T
How it was run: as §1

BT20 = system: BT20
How it was run: as §1

MX1 = system: MX1
How it was run: as §1

MDAMB231 = system: MDAMB231
How it was run: as §1

SUM159PT = system: SUM159PT
How it was run: as §1

HCC1569 = system: HCC1569
How it was run: as §1

SUM149PT = system: SUM149PT
How it was run: as §1

HCC1937 = system: HCC1937
How it was run: as §1

HCC70 = system: HCC70
How it was run: as §1

CAMA1 = system: CAMA1
How it was run: as §1

MDAMB453 = system: MDAMB453
How it was run: as §1

HCC1954 = system: HCC1954
How it was run: as §1

ZR75B = system: ZR75B
How it was run: as §1

MCF10A = system: MCF10A
How it was run: as §1

SUM229PE = system: SUM229PE
How it was run: as §1

MDAMB361 = system: MDAMB361
How it was run: as §1

HCC202 = system: HCC202
How it was run: as §1

- -log10 GI50 (HCC1395): < 4
- -log10 GI50 (HCC1428): < 4
- -log10 GI50 (HCC1806): < 4.3
- -log10 GI50 (HCC1187): 5.39
- -log10 GI50 (MDAMB175VII): 4.85
- -log10 GI50 (T47D_KBluc): < 4.3
- -log10 GI50 (HCC1419): < 4
- -log10 GI50 (BT483): 4.52
- -log10 GI50 (MDAMB134VI): < 4
- -log10 GI50 (HCC2185): 5.06
- -log10 GI50 (HCC3153): 4.1
- -log10 GI50 (MDAMB157): < 4.3
- -log10 GI50 (MDAMB415): 4.6
- -log10 GI50 (HCC38): 4.29
- -log10 GI50 (MCF7): < 4.3
- -log10 GI50 (HCC1143): < 4
- -log10 GI50 (BT549): 4.36
- -log10 GI50 (SKBR3): 4.73
- -log10 GI50 (BT474): 4.58
- -log10 GI50 (T47D): < 4.3
- -log10 GI50 (BT20): 4.45
- -log10 GI50 (MDAMB231): < 4.3
- -log10 GI50 (HCC1569): < 4.3
- -log10 GI50 (HCC1937): 4.5
- -log10 GI50 (MDAMB453): < 4.3
- -log10 GI50 (HCC1954): < 4.3
- -log10 GI50 (MDAMB361): 4.3
Compound: COc1cccc(-c2cc(=O)c3ccccc3o2)c1N
- -log10 GI50 (600MPE): < 4.3
- -log10 GI50 (UACC812): 4.65
- -log10 GI50 (184A1): < 4.3
- -log10 GI50 (SUM1315MO2): < 4.3
- -log10 GI50 (SUM185PE): 4.88
- -log10 GI50 (ZR751): < 4.3
- -log10 GI50 (SUM52PE): 4.92
- -log10 GI50 (SUM225CWN): 4.64
- -log10 GI50 (MCF12A): < 4.3
- -log10 GI50 (184B5): < 4.3
- -log10 GI50 (AU565): 5.12
- -log10 GI50 (LY2): < 4.3
- -log10 GI50 (MCF10F): < 4.3
- -log10 GI50 (HS578T): < 4.3
- -log10 GI50 (MX1): 4.39
- -log10 GI50 (SUM159PT): 4.03
- -log10 GI50 (SUM149PT): 4.66
- -log10 GI50 (HCC70): < 4.3
- -log10 GI50 (CAMA1): 4.32
- -log10 GI50 (ZR75B): 4.59
- -log10 GI50 (MCF10A): < 4.3
- -log10 GI50 (SUM229PE): < 4.3

- -log10 GI50 (HCC1395): 4.69
- -log10 GI50 (HCC1428): < 4.3
- -log10 GI50 (HCC1806): < 4.3
- -log10 GI50 (HCC1187): 6.1
- -log10 GI50 (MDAMB175VII): < 4.3
- -log10 GI50 (T47D_KBluc): < 4.48
- -log10 GI50 (HCC1419): < 4.3
- -log10 GI50 (BT483): < 4.3
- -log10 GI50 (MDAMB134VI): 4.32
- -log10 GI50 (HCC2185): 5.71
- -log10 GI50 (HCC3153): < 4.48
- -log10 GI50 (MDAMB157): 5.16
- -log10 GI50 (MDAMB415): 5.39
- -log10 GI50 (HCC38): 6.53
- -log10 GI50 (MCF7): < 4.48
- -log10 GI50 (HCC1143): < 4.3
- -log10 GI50 (BT549): < 4.3
- -log10 GI50 (SKBR3): 5.22
- -log10 GI50 (BT474): < 4.3
- -log10 GI50 (T47D): < 4.48
- -log10 GI50 (BT20): < 4.3
- -log10 GI50 (HCC1569): < 4.3
- -log10 GI50 (HCC1937): < 4.3
- -log10 GI50 (MDAMB453): 4.88
- -log10 GI50 (HCC1954): 4.82
- -log10 GI50 (MDAMB361): 4.39
Compound: CC(C(C)N1CC(=O)NC(=O)C1)N1CC(=O)NC(=O)C1 (stereo not given) [ICRF-193]
- -log10 GI50 (600MPE): < 4.3
- -log10 GI50 (UACC812): < 4.48
- -log10 GI50 (184A1): < 4.3
- -log10 GI50 (SUM1315MO2): 6.35
- -log10 GI50 (SUM185PE): < 4.3
- -log10 GI50 (ZR751): 6.07
- -log10 GI50 (SUM52PE): 5.6
- -log10 GI50 (SUM225CWN): < 4.48
- -log10 GI50 (MCF12A): 6.71
- -log10 GI50 (184B5): < 4.48
- -log10 GI50 (AU565): 6.14
- -log10 GI50 (LY2): 5.97
- -log10 GI50 (MCF10F): < 4.3
- -log10 GI50 (HS578T): 5.63
- -log10 GI50 (MX1): 5.95
- -log10 GI50 (SUM159PT): 6.53
- -log10 GI50 (SUM149PT): 5.59
- -log10 GI50 (HCC70): < 4.3
- -log10 GI50 (CAMA1): < 4.3
- -log10 GI50 (ZR75B): 6.6
- -log10 GI50 (MCF10A): 7.07
- -log10 GI50 (SUM229PE): 6.14

- -log10 GI50 (HCC1395): 5.86
- -log10 GI50 (HCC1428): 5.4
- -log10 GI50 (HCC1806): 5.99
- -log10 GI50 (HCC1187): 5.25
- -log10 GI50 (T47D_KBluc): 5.38
- -log10 GI50 (HCC1419): 5.36
- -log10 GI50 (MDAMB134VI): 5.26
- -log10 GI50 (HCC2185): 5.13
- -log10 GI50 (HCC3153): 5.48
- -log10 GI50 (MDAMB157): 5.74
- -log10 GI50 (HCC38): 5.45
- -log10 GI50 (HCC1143): 5.3
- -log10 GI50 (BT549): 5.4
- -log10 GI50 (SKBR3): 5.53
- -log10 GI50 (BT474): 5.27
- -log10 GI50 (T47D): 5.55
- -log10 GI50 (BT20): 5.42
- -log10 GI50 (MDAMB231): 5.44
- -log10 GI50 (HCC1569): 5.48
- -log10 GI50 (HCC1937): 5.59
- -log10 GI50 (HCC202): 5.1
- -log10 GI50 (MDAMB453): 5.55
- -log10 GI50 (HCC1954): 5.77
- -log10 GI50 (MDAMB361): 5.24
Compound: O=C(c1ccc(Nc2nccc(-c3cc4ccccc4s3)n2)cc1)N1CCC(N2CCCC2)CC1 [IKK 16]
- -log10 GI50 (600MPE): 5.11
- -log10 GI50 (UACC812): 5.09
- -log10 GI50 (184A1): 6.05
- -log10 GI50 (SUM1315MO2): 5.81
- -log10 GI50 (ZR751): 5.29
- -log10 GI50 (SUM52PE): 5.94
- -log10 GI50 (SUM225CWN): 5.51
- -log10 GI50 (MCF12A): 5.39
- -log10 GI50 (184B5): 5.83
- -log10 GI50 (AU565): 5.58
- -log10 GI50 (LY2): 5.26
- -log10 GI50 (MCF10F): 5.37
- -log10 GI50 (HS578T): 5.53
- -log10 GI50 (SUM159PT): 5.8
- -log10 GI50 (SUM149PT): 5.82
- -log10 GI50 (HCC70): 5.54
- -log10 GI50 (CAMA1): 5.57
- -log10 GI50 (MCF10A): 5.56
- -log10 GI50 (SUM229PE): 6
